According to US20260374739A1, “SMALL MOLECULAR WEIGHT CHEMICAL COMPOUND TO ANTAGONIZE EPH-EPHRIN TETRAMERIZATION AND INHIBIT BIDIRECTIONAL SIGNALING” (THE BOARD OF REGENTS OF THE UNIVERSITY OF TEXAS SYSTEM, priority 2022, published 2026):
pIC50: −log10 of the molar value. Several values for one entry are separate records, joined by “and”; a condition that tells them apart may be missing. Equal values may be shown once. Read-outs that look alike come from different tables or passages of the source.

Columns and labels:
EphrinB2-EphB1 = molecular target: T1, EphrinB2-EphB1 (Homo sapiens, UniProt P54762); assay: Octet 80 sec association/500 sec dissociation, immobilized human EphrinB2-Fc binding to soluble human EphB1-His; settings: for EphB1 Inhibition Percent, Inhibition of Association-Dissociation: at 3.2 μM and 580 seconds; for EphB1 Inhibition Percent, Inhibition of Association-Dissociation / EphB1 Inhibition Percent, Inhibition of Association ONLY: immobilized human EphrinB2, 25 nM soluble human EphB1; for EphB1 Inhibition Percent, Inhibition of Association ONLY: at 3.2 μM and 80 seconds
T1 construct: soluble human EphB1-His, EphB2-His, and EphB4-His ectodomains; commercially available human EphrinB1-Fc (EB1), EphrinB2-Fc (EB2), and EphrinB3-Fc (EB3) ectodomain proteins; purchased
T1 sequence (P54762 18-540 limits assumed): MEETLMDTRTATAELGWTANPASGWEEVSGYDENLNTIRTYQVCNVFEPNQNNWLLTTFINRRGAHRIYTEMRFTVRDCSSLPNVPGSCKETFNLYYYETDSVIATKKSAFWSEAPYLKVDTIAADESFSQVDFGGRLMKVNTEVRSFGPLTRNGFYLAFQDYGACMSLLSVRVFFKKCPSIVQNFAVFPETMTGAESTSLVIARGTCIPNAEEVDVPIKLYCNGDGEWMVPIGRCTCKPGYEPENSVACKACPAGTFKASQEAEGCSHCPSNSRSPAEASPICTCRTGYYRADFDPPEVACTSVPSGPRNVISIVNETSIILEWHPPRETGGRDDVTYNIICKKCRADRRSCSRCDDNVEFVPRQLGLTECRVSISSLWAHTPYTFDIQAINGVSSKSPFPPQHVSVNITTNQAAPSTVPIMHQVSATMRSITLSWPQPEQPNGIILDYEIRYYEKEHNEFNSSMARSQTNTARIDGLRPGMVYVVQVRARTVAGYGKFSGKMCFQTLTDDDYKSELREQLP
Procedure, shortened: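 EphrinB2-Fc captured on AHC biosensors, then soluble His-tagged EphB ectodomain (25 nM for % inhibition runs) associated 80 s and dissociated 500 s in PBS, 0.05% Tween-20, 1% DMSO ± compound. Compounds tested at 0.1–3.2 μM with a 10 μM max standard; IC50 from AUC of full traces or at 75 s and 135 s.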

EphB4-EphrinB2 = molecular target: T2, EphB4-EphrinB2 (Mus musculus, UniProt P54761); assay: Octet RED384, immobilized mouse EphB4-Fc binding to mouse EB2-His
T2 construct: biosensor immobilized rodent EphB1-Fc and EphB4-Fc ectodomain proteins; mouse EB2-His residues 18-232; purchased R&D Systems (EphB-Fc); Sino Biologicals (EphrinB-His)
T2 sequence (P54761 16-539 limits assumed): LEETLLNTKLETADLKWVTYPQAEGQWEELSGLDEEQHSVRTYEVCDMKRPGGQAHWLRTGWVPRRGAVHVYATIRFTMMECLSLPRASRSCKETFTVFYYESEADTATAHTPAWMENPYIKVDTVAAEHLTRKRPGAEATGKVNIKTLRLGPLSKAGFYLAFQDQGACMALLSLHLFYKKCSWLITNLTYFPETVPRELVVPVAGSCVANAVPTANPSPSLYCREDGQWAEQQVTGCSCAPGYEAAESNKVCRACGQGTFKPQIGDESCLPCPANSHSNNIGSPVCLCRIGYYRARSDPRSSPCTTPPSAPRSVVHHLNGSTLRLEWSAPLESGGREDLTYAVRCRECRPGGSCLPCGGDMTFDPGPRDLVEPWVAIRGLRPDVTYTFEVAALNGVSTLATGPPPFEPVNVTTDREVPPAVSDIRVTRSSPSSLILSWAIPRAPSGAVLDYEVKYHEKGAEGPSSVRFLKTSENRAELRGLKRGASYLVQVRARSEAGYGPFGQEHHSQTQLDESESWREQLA
Description: […] Association time was for 400 sec and dissociation time was for 500 sec. Binding assays were conducted in PBS containing 0.05% Tween-20 and 1% DMSO.

[1] = mEphB4-mEphrinB2, immobilized mouse EphB4, 50 nM soluble mouse EphrinB2, association, absolute, read-out: Absolute Association IC50
[2] = mEphB4-mEphrinB2, immobilized mouse EphB4, 50 nM soluble mouse EphrinB2, association, relative, read-out: Relative Association IC50
[3] = mEphB4-mEphrinB2, immobilized mouse EphB4, 50 nM soluble mouse EphrinB2, dissociation, absolute, read-out: Absolute Dissociation IC50
[4] = mEphB4-mEphrinB2, immobilized mouse EphB4, 50 nM soluble mouse EphrinB2, dissociation, relative, read-out: Relative Dissociation IC50
[5] = EphB1, 25 nM EphB1, 3.2 μM compound, A20-I as max control, 0* = less than 0, no inhibition, read-out: % Inhibition: Association + Dissociation (160 sec)
[6] = EphB1, 25 nM EphB1, 3.2 μM compound, A20-I as max control, 0* = less than 0, no inhibition, read-out: % Inhibition: Association ONLY (80 sec)

| SMILES | EphB1 Inhibition Percent, Inhibition of Association-Dissociation (EphrinB2-EphB1) | pIC50 (EphB4-EphrinB2; [1]) | pIC50 (EphB4-EphrinB2; [2]) | pIC50 (EphB4-EphrinB2; [3]) | pIC50 (EphB4-EphrinB2; [4]) | % Inhibition: Association + Dissociation (160 sec) (EphrinB2-EphB1; EphB1, 25 nM EphB1, 3.2 μM compound, A20-I as max control, 0* = less than 0, no inhibition, listed as A19-NO2 (B)) [%] | EphB1 Inhibition Percent, Inhibition of Association ONLY (EphrinB2-EphB1) [%] | inhibition at 3.2 µM (EphrinB2-EphB1; [5]) [%] | inhibition at 3.2 µM (EphrinB2-EphB1; [6]) [%] | pIC50 (EphB4-EphrinB2; EphB4-EB2, read-out: area under the curve IC50) |
| --- | --- | --- | --- | --- | --- | --- | --- | --- | --- | --- |
| Oc1c(I)cc(CN2CCOCC2)c2cccnc12 [Compound 8, 4-((8-hydroxy-7-iodoquinolin-1-ium-5-yl)methyl)morpholin-4-ium chloride] | 53.2% | < 5.80 and 4.00 | 6.29 and 6.47 | 6.19 and 6.17 | 6.28 | – | – | – | – | – |
| O=[N+]([O-])c1cc(CN2CCOCC2)c2cccnc2c1O [Compound 10, 4-((8-hydroxy-7-nitroquinolin-1-ium-5-yl)methyl)morpholin-4-ium chloride] | 23.1% and 14.2% and 20.2% | 4.00 | 5.20 | 5.58 | 5.62 | 14.2 | – | – | – | – |
| Oc1ccc(CN2CCOCC2)c2cccnc12 [Compound 1, 5-(morpholinomethyl)quinolin-8-ol] | – | 4.00 | 4.00 | 4.00 | – | – | – | – | – | – |
| Oc1c(Br)cc(CN2CCOCC2)c2cccnc12 [Compound 6, 4-((7-bromo-8-hydroxyquinolin-1-ium-5-yl)methyl)morpholin-4-ium chloride] | 48.7% | 4.00 | 6.66 | 6.39 | 6.66 | – | 33.5 | – | – | – |
| Oc1ccc(CN2CCN(Cc3ccc(C(F)(F)F)cc3)CC2)c2cccnc12 [Compound 48, 5-((4-(4-(trifluoromethyl)benzyl)piperazin-1-yl)methyl)quinolin-8-ol] | – | – | 5.08 | – | 5.72 | – | – | 19.8 | 2.6 | – |
| Oc1c(Cl)cc(CN2CCOCC2)c2cccnc12 [Compound 4, 4-((7-chloro-8-hydroxyquinolin-1-ium-5-yl)methyl)morpholin-4-ium chloride] | 48.4% | < 5.00 | 5.50 | 6.08 | 6.28 | – | 34.2 | – | – | – |
| O=S1(=O)CCN(Cc2ccc(O)c3ncccc23)CC1 [Compound 15, 4-((8-hydroxyquinolin-1-ium-5-yl)methyl)thiomorpholin-4-ium 1,1-dioxide chloride] | 28.6% | 4.00 | < 5.00 | 4.88 | 6.20 | – | 16.8 | – | – | – |
| Oc1c(Br)cc(CN2CCOCC2)c2cccnc12 [Compound 5, 7-bromo-5-(morpholinomethyl)quinolin-8-ol] | – | – | – | – | – | – | – | 45.2 | 25.1 | < 4.00 |
